Data from PubChem BioAssay (NCI).
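Each compound was tested at five concentrations against cells in 96-well plates for 48 hours. GI50 marks 50% less growth. TGI: concentration producing complete growth inhibition.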

Experiments:
Experiment in all cases: NCI tumour cell line growth inhibition, 48 h
786-0 renal = tested on: 786-0 renal
A498 renal = tested on: A498 renal
A549 NSCLC = tested on: A549 NSCLC
ACHN renal = tested on: ACHN renal
BT-549 breast = tested on: BT-549 breast
CAKI-1 renal = tested on: CAKI-1 renal
CCRF-CEM leukemia = tested on: CCRF-CEM leukemia
COLO 205 colon = tested on: COLO 205 colon
DU-145 prostate = tested on: DU-145 prostate
EKVX NSCLC = tested on: EKVX NSCLC
HCC-2998 colon = tested on: HCC-2998 colon
HCT-116 colon = tested on: HCT-116 colon
HCT-15 colon = tested on: HCT-15 colon
HL-60(TB) leukemia = tested on: HL-60(TB) leukemia
HOP-62 NSCLC = tested on: HOP-62 NSCLC
HOP-92 NSCLC = tested on: HOP-92 NSCLC
HS 578T breast = tested on: HS 578T breast
HT29 colon = tested on: HT29 colon
IGROV1 ovarian = tested on: IGROV1 ovarian
K-562 leukemia = tested on: K-562 leukemia
KM12 colon = tested on: KM12 colon
LOX IMVI melanoma = tested on: LOX IMVI melanoma
M14 melanoma = tested on: M14 melanoma
MALME-3M melanoma = tested on: MALME-3M melanoma
MCF7 breast = tested on: MCF7 breast
MDA-MB-231 breast = tested on: MDA-MB-231 breast
MDA-MB-435 = tested on: MDA-MB-435
MDA-MB-468 breast = tested on: MDA-MB-468 breast
MOLT-4 leukemia = tested on: MOLT-4 leukemia
NCI-H226 lung = tested on: NCI-H226 lung
NCI-H23 lung = tested on: NCI-H23 lung
NCI-H460 lung = tested on: NCI-H460 lung
NCI-H522 lung = tested on: NCI-H522 lung
OVCAR-3 ovarian = tested on: OVCAR-3 ovarian
OVCAR-4 ovarian = tested on: OVCAR-4 ovarian
OVCAR-5 ovarian = tested on: OVCAR-5 ovarian
OVCAR-8 ovarian = tested on: OVCAR-8 ovarian
PC-3 prostate = tested on: PC-3 prostate
RPMI-8226 leukemia = tested on: RPMI-8226 leukemia
RXF 393 renal = tested on: RXF 393 renal
SF-268 CNS = tested on: SF-268 CNS
SF-295 CNS = tested on: SF-295 CNS
SF-539 CNS = tested on: SF-539 CNS
SK-MEL-2 melanoma = tested on: SK-MEL-2 melanoma
SK-MEL-28 melanoma = tested on: SK-MEL-28 melanoma
SK-MEL-5 melanoma = tested on: SK-MEL-5 melanoma
SK-OV-3 ovarian = tested on: SK-OV-3 ovarian
SN12C renal = tested on: SN12C renal
SNB-19 CNS = tested on: SNB-19 CNS
SR leukemia = tested on: SR leukemia
SW-620 colon = tested on: SW-620 colon
T-47D breast = tested on: T-47D breast
TK-10 renal = tested on: TK-10 renal
U251 CNS = tested on: U251 CNS
UACC-257 melanoma = tested on: UACC-257 melanoma
UACC-62 melanoma = tested on: UACC-62 melanoma
UO-31 renal = tested on: UO-31 renal

SMILES: Cn1cc(-c2cc(N)n3nc(-c4c[nH]c5ccc(F)cc45)cc3n2)c2cccnc21
- GI50 (786-0 renal): 1.64 µM
- TGI (786-0 renal): 3.11 µM
- GI50 (A498 renal): 17 µM
- TGI (A498 renal): 30.9 µM
- GI50 (A549 NSCLC): 2.48 µM
- TGI (A549 NSCLC): 7.91 µM
- GI50 (ACHN renal): 1.71 µM
- TGI (ACHN renal): 3.23 µM
- GI50 (BT-549 breast): 12.8 µM
- TGI (BT-549 breast): 28.1 µM
- GI50 (CAKI-1 renal): 2.21 µM
- TGI (CAKI-1 renal): 6.42 µM
- GI50 (CCRF-CEM leukemia): 2.35 µM
- TGI (CCRF-CEM leukemia): 7.74 µM
- GI50 (COLO 205 colon): 1.78 µM
- TGI (COLO 205 colon): 3.46 µM
- GI50 (DU-145 prostate): 2.06 µM
- TGI (DU-145 prostate): 4.4 µM
- GI50 (EKVX NSCLC): 3.47 µM
- TGI (EKVX NSCLC): 14.9 µM
- GI50 (HCC-2998 colon): 1.79 µM
- TGI (HCC-2998 colon): 3.33 µM
- GI50 (HCT-116 colon): 1.9 µM
- TGI (HCT-116 colon): 3.6 µM
- GI50 (HCT-15 colon): 1.82 µM
- TGI (HCT-15 colon): 4.14 µM
- GI50 (HL-60(TB) leukemia): 1.9 µM
- TGI (HL-60(TB) leukemia): 4.71 µM
- GI50 (HOP-62 NSCLC): 8.69 µM
- TGI (HOP-62 NSCLC): 21.2 µM
- GI50 (HOP-92 NSCLC): 14.2 µM
- TGI (HOP-92 NSCLC): 39 µM
- GI50 (HS 578T breast): 16.9 µM
- TGI (HS 578T breast): 54.2 µM
- GI50 (HT29 colon): 1.91 µM
- TGI (HT29 colon): 3.85 µM
- GI50 (IGROV1 ovarian): 2.24 µM
- TGI (IGROV1 ovarian): 5.39 µM
- GI50 (K-562 leukemia): 3.42 µM
- TGI (K-562 leukemia): 28.3 µM
- GI50 (KM12 colon): 2.5 µM
- TGI (KM12 colon): 6.26 µM
- GI50 (LOX IMVI melanoma): 1.8 µM
- TGI (LOX IMVI melanoma): 3.29 µM
- GI50 (M14 melanoma): 1.88 µM
- TGI (M14 melanoma): 4.01 µM
- GI50 (MALME-3M melanoma): 1.75 µM
- TGI (MALME-3M melanoma): 3.59 µM
- GI50 (MCF7 breast): 2.01 µM
- TGI (MCF7 breast): 4.19 µM
- GI50 (MDA-MB-231 breast): 1.92 µM
- TGI (MDA-MB-231 breast): 3.7 µM
- GI50 (MDA-MB-435): 1.92 µM
- TGI (MDA-MB-435): 4.18 µM
- GI50 (MDA-MB-468 breast): 1.66 µM
- TGI (MDA-MB-468 breast): 3.27 µM
- GI50 (MOLT-4 leukemia): 2.42 µM
- TGI (MOLT-4 leukemia): 7.73 µM
- GI50 (NCI-H226 lung): 1.92 µM
- TGI (NCI-H226 lung): 4 µM
- GI50 (NCI-H23 lung): 2.52 µM
- TGI (NCI-H23 lung): 7.67 µM
- GI50 (NCI-H460 lung): 1.8 µM
- TGI (NCI-H460 lung): 3.61 µM
- GI50 (NCI-H522 lung): 13.8 µM
- TGI (NCI-H522 lung): 27.4 µM
- GI50 (OVCAR-3 ovarian): 1.82 µM
- TGI (OVCAR-3 ovarian): 3.69 µM
- GI50 (OVCAR-4 ovarian): 11.6 µM
- TGI (OVCAR-4 ovarian): 30 µM
- GI50 (OVCAR-5 ovarian): 3.33 µM
- TGI (OVCAR-5 ovarian): 13.4 µM
- GI50 (OVCAR-8 ovarian): 3.18 µM
- TGI (OVCAR-8 ovarian): 11 µM
- GI50 (PC-3 prostate): 3.26 µM
- TGI (PC-3 prostate): 13.4 µM
- GI50 (RPMI-8226 leukemia): 2.43 µM
- TGI (RPMI-8226 leukemia): 7.74 µM
- GI50 (RXF 393 renal): 1.77 µM
- TGI (RXF 393 renal): 3.35 µM
- GI50 (SF-268 CNS): 11.6 µM
- TGI (SF-268 CNS): 39.6 µM
- GI50 (SF-295 CNS): 1.69 µM
- TGI (SF-295 CNS): 3.17 µM
- GI50 (SF-539 CNS): 1.78 µM
- TGI (SF-539 CNS): 3.25 µM
- GI50 (SK-MEL-2 melanoma): 12.6 µM
- TGI (SK-MEL-2 melanoma): 25.2 µM
- GI50 (SK-MEL-28 melanoma): 1.7 µM
- TGI (SK-MEL-28 melanoma): 3.17 µM
- GI50 (SK-MEL-5 melanoma): 11.6 µM
- TGI (SK-MEL-5 melanoma): 24.1 µM
- GI50 (SK-OV-3 ovarian): 18.1 µM
- TGI (SK-OV-3 ovarian): 39.2 µM
- GI50 (SN12C renal): 13.1 µM
- TGI (SN12C renal): 26.2 µM
- GI50 (SNB-19 CNS): 4.05 µM
- TGI (SNB-19 CNS): 16.2 µM
- GI50 (SR leukemia): 2.8 µM
- TGI (SR leukemia): > 100 µM
- GI50 (SW-620 colon): 1.83 µM
- TGI (SW-620 colon): 3.78 µM
- GI50 (T-47D breast): 2.9 µM
- TGI (T-47D breast): 13.2 µM
- GI50 (TK-10 renal): 2.95 µM
- TGI (TK-10 renal): 11.1 µM
- GI50 (U251 CNS): 2 µM
- TGI (U251 CNS): 4.1 µM
- GI50 (UACC-257 melanoma): 14.8 µM
- TGI (UACC-257 melanoma): 28 µM
- GI50 (UACC-62 melanoma): 1.77 µM
- TGI (UACC-62 melanoma): 3.34 µM
- GI50 (UO-31 renal): 1.66 µM
- TGI (UO-31 renal): 3.24 µM
